# Patent US20140128364A1, “THERAPEUTIC USES OF TIGEMONAM AND CARUMONAM” (priority 2012, published 2014)
# Like-named read-outs stand apart in the source and are kept apart here.
# Experiments:
# [1] = system: Escherichia coli strain ECM6704 (vector pUCP24 alone); experiment: microbe, parasite or virus in culture; format: cell-based; settings: E. coli ECM6704, vector alone, cation-adjusted Mueller-Hinton broth, 18 h, 35° C.
# Procedure: (§1) MICs were recorded after an eighteen-hour growth at 35° C. […] In Table 1, all genes were cloned into vector pUCP24 and introduced into Escherichia coli strain.
# [2] = system: Klebsiella pneumoniae KP1008 (KPC-2); settings: clinical strain KP1008, Klebsiella pneumoniae, 18 h, 35° C.
# [3] = system: Citrobacter freundii CF1012 (KPC-2); settings: clinical strain CF1012, Citrobacter freundii, 18 h, 35° C.
# [4] = system: Escherichia coli strain ECM6702 expressing KPC-3 β-lactamase; experiment: microbe, parasite or virus in culture; settings: 18 h
# Procedure: as §1
# [5] = system: Escherichia coli strain ECM6701 expressing KPC-2 β-lactamase; experiment: microbe, parasite or virus in culture; settings: 18 h
# Procedure: as §1
# [6] = system: Enterobacter cloacae ECL1036 (KPC-3, TEM-1); experiment: microbe, parasite or virus in culture; format: cell-based; settings: 18 h
# [7] = system: Enterobacter cloacae ECL1026 (KPC-2, TEM-1); experiment: microbe, parasite or virus in culture; format: cell-based; settings: 18 h
# [8] = molecular target: purified KPC-2 β-lactamase (Klebsiella pneumoniae, UniProt Q9F663); experiment: Kinetics of monobactam hydrolysis by purified KPC-2
# Sequence of purified KPC-2 β-lactamase (Q9F663 25-293 limits assumed): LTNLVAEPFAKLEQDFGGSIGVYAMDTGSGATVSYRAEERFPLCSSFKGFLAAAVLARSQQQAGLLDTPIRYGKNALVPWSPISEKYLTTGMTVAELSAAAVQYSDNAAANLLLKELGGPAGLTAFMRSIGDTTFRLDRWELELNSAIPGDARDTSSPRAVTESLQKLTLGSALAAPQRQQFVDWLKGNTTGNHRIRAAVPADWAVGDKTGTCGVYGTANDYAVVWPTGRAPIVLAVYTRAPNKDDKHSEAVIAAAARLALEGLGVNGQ
# Procedure: The optical density was checked every 2 minutes for 2 hours. […] Vmax and Km values were calculated using “Prizm” software (“GraphPad”). Kcat values were calculated using the equation kcat=Vmax/[enzyme concentration].
# [9] = system: Escherichia coli EC1007 (KPC-3); settings: clinical strain EC1007, Escherichia coli, 18 h, 35° C.
# [10] = system: Enterobacter cloacae ECL1055 (KPC-3, TEM); experiment: MIC, CLSI broth microdilution, clinical strain ECL1055; format: cell-based; settings: clinical strain ECL1055, Enterobacter loacae, 18 h, 35° C.
# [11] = system: Citrobacter freundii CF1012 (KPC-2); experiment: microbe, parasite or virus in culture; settings: 18 h
# [12] = system: Klebsiella pneumoniae KP1008 (KPC-2); experiment: microbe, parasite or virus in culture; settings: 18 h
# [13] = system: Escherichia coli EC1007 (KPC-3); experiment: microbe, parasite or virus in culture; settings: 18 h
# [14] = Escherichia coli, read-out: MIC
SMILES,MIC [1],MIC [2] [µg/mL],MIC [3] [µg/mL],"MIC ([4]; E. coli ECM6702, KPC-3, cation-adjusted Mueller-Hinton broth, 35° C.) [µg/mL]","MIC ([5]; E. coli ECM6701, KPC-2, cation-adjusted Mueller-Hinton broth, 35° C.) [µg/mL]","MIC ([6]; clinical strain ECL1036, Enterobacter Vcloacae, KPC-3, TEM-1, 35° C.) [µg/mL]","MIC ([7]; clinical strain ECL1026, Enterobacter cloacae, KPC-2, TEM-1, 35° C.) [µg/mL]","Km ([8]; 50 mM sodium phosphate pH 7.0, 0.1 mg/ml BSA, 37° C., OD 318 nm) [µM]",kcat ([8]; kcat=Vmax/[enzyme concentration]) [s⁻¹],MIC [9] [µg/mL],MIC [10] [µg/mL],"MIC [1, 14] [µg/mL]",MIC [11] [µg/mL],MIC [12] [µg/mL],MIC ([4]; Escherichia coli) [µg/mL],MIC ([5]; Escherichia coli) [µg/mL],MIC ([6]; Enterobacter cloacae) [µg/mL],MIC ([7]; Enterobacter cloacae) [µg/mL],MIC [13] [µg/mL],"MIC ([10]; Enterobacter cloacae, read-out: MIC) [µg/mL]"
"CC1(C)[C@H](NC(=O)/C(=N\OCC(=O)O)c2csc(N)n2)C(=O)N1OS(=O)(=O)O [Tigemonam, tigemonam]",<=0.125 μg/ml,1,8,0.5,0.25,8,4,678,0.233,1,8,–,–,–,–,–,–,–,–,–
"C[C@H]1[C@H](NC(=O)/C(=N\OC(C)(C)C(=O)O)c2csc(N)n2)C(=O)N1S(=O)(=O)O [Aztreonam, aztreonam]",–,–,–,–,–,–,–,–,–,–,–,≤ 0.125,–,–,–,–,–,–,–,–
"NC(=O)OC[C@@H]1[C@H](NC(=O)/C(=N\OCC(=O)O)c2csc(N)n2)C(=O)N1S(=O)(=O)O [Carumonam, carumonam]",–,–,–,–,–,–,–,–,–,–,–,≤ 0.125,2,0.5,0.25,0.25,2,2,1,4
